From patent US6762174B1 (priority 1998, dated 2004)
Several values for one entry are separate records, joined by “and”; a condition that tells them apart may be missing. Identical values can stand only once. Like-named read-outs stand apart in the source and are kept apart here. Marks after values point to notes of the source that are not given here.

Assays:
[1] = test system: anti-Pn14 antibodies (Pn14-Tetanus Toxin antigen); design: species or system BALB/c female mice; settings: mouse, in vivo
[2] = test system: human hematopoietic progenitor cells (CD34+ cells); assay: Blood cell stimulation: CD34+ suspension culture, lineage marker ELISA; assay type: cell-based; settings: Study 1: 1 ng/ml compound
Description: A 96-well-based suspension culture system (Warren et al, Stem Cells 13:167 (1995) for human hematopoietic progenitor cells was used to monitor the commitment and differentiation of CD34+ cells in vitro. Expression of maturation and lineage markers on the cells in culture were measured by ELISA. […] A combination of growth factors was added that stimulates the expression of the appropriate lineage markers. The culture consisted of: IMDM plus 15% FBS, 0.5 ng/ml IL-3, 20 ng/ml SCF, 1 unit/ml EPO, 1 ng/ml GCSF and the indicated concentrations of test compounds. The cells were then fixed with a glutaraldehyde-paraformaldehyde mixture, attaching the cells firmly to the plastic. An ELISA was performed (Warren et al, Stem Cells 13:167 (1995)), using appropriate primary antibodies directed against cell surface markers. The expression of three different lineage markers was measured: CD14 (monocyte), CD15 (neutrophil), and glycophorin A (erythroid).

[3] = test system: Hybridoma cells (ATCC #CRL-8014, OKT-8); assay: Production of monoclonal antibodies from hybridomas (sandwich ELISA); assay type: cell-based; settings: 200 ρg/ml vs control
Description: Hybridoma cells (ATCC #CRL-8014, OKT-8, secreting an IgG2 anti-human T-cell subset antibody) were growth with or without N-carbobenzoxy-β-alanyl-taurine zinc salt in T25 culture flasks. Cells were inoculated at a density of 10,000 cells/ml and maintained below 500,000 cells/ml in 5 mls of protein-free media containing HyQ-PF-MAB from Hyclone. Aliquots were assayed for Mab production by a sandwich ELISA. Aliquots were diluted to be within the standard range and added to plates precoated with goat anti-mouse IgG by incubating two hours at room temperature. Wells were washed and reacted with diluted supernatants, then washed and detected with peroxidase labeled anti-mouse antibodies.

[4] = test system: delayed type hypersensitivity (DTH) response to oxazalone (OX); design: species or system mice; settings: mouse, in vivo

| Compound | Mean Change in O.D. from pre-boost 10 days after boost with UNCONJUGATED polysaccharide [1] | Mean Change in O.D. from pretest, Day 4 [1] | Mean Change in O.D. from pretest, Day 14 [1] | Mean Change in O.D. from pretest, Day 14 ([1]; ip) | Percent difference (relative to control), monocytes [2] | Percent difference (relative to control), neutrophils [2] | Percent difference (relative to control), red blood cells [2] | Increase of IgG μg/ml [3] | Increase of IgG ρg/cell [3] | Major DTH at 24 hrs [4] | Major DTH at 48 hrs. [4] | Major DTH at either 24 or 48 hrs. [4] | Moderate DTH at 24 hrs [4] | response rate, moderate DTH at 24 hrs [4] | total treated animals with major immune response [4] | total treated animals with major response [4] | Major DTH at 24 hrs ([4]; iv) | Major DTH at 48 hrs. ([4]; iv) |
| --- | --- | --- | --- | --- | --- | --- | --- | --- | --- | --- | --- | --- | --- | --- | --- | --- | --- | --- |
| NCCC(=O)NCCS(=O)(=O)O [Taurox-S, β-alanyl-taurine] | 204 | 2.9 | 697 | 681 and 671 | 47% | 55% | 50% | – | – | – | – | – | – | – | – | – | – | – |
| N-carbobenzoxy-β-alanyl-taurine zinc salt | – | – | – | – | – | – | – | 316% | 93% | 50* | 50 | 60 | 70 | eight of ten | 14 | 21 | 20 and 10 | 20 and 10 |
